In ChEMBL document CHEMBL5614368, “Fyn, Blk, and Lyn kinase inhibitors: A mini-review on medicinal attributes, research progress, and future insights” (Bioorg Med Chem Lett, 2024):

What was measured:
[1] = target: Tyrosine-protein kinase Lyn (Homo sapiens) (UniProt P07948); assay: Inhibition of LYN (unknown origin) at 0.1 uM relative to control
[2] = target: Tyrosine-protein kinase Fyn (Homo sapiens, UniProt P06241); assay: Inhibition of full-length human recombinant Fyn using Poly(Glu4, Tyr1) as substrate measured for 60 mins by Kinase-Glo reagent based analysis
[3] = target: Proto-oncogene tyrosine-protein kinase Src (Homo sapiens, UniProt P12931); assay: Binding affinity to SRC (unknown origin) assessed as inhibition constant
Chain of Proto-oncogene tyrosine-protein kinase Src (P12931 2-536 limits assumed): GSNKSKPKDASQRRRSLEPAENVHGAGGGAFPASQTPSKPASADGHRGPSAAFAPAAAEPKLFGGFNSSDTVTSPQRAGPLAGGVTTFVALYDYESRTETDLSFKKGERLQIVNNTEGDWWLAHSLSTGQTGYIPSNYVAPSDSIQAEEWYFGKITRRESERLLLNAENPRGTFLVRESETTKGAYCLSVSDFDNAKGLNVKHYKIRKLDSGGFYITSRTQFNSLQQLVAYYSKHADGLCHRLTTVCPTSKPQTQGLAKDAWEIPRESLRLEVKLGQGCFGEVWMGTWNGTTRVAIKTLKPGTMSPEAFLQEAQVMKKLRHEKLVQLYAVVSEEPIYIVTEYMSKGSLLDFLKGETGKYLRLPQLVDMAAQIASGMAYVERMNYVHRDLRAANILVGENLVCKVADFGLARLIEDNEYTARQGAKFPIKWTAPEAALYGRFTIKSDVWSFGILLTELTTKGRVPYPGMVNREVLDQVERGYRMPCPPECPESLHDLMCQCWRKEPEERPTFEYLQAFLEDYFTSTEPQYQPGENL

Chain of Tyrosine-protein kinase Fyn (P06241 whole entry): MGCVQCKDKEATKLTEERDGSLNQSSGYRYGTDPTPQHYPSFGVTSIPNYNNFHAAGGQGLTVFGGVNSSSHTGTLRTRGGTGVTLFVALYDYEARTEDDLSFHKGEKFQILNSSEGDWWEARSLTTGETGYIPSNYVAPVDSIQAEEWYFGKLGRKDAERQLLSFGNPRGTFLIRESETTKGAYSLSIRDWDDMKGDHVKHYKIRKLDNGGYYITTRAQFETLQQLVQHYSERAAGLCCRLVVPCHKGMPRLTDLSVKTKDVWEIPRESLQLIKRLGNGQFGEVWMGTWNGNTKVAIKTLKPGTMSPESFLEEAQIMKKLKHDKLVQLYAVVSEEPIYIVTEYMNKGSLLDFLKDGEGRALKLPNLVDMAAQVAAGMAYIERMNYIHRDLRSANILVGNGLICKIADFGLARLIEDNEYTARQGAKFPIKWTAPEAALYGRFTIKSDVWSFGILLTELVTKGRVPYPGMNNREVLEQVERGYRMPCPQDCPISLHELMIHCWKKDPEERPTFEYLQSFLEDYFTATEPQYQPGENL
Chain of Tyrosine-protein kinase Lyn (Homo sapiens) (P07948 2-512 limits assumed): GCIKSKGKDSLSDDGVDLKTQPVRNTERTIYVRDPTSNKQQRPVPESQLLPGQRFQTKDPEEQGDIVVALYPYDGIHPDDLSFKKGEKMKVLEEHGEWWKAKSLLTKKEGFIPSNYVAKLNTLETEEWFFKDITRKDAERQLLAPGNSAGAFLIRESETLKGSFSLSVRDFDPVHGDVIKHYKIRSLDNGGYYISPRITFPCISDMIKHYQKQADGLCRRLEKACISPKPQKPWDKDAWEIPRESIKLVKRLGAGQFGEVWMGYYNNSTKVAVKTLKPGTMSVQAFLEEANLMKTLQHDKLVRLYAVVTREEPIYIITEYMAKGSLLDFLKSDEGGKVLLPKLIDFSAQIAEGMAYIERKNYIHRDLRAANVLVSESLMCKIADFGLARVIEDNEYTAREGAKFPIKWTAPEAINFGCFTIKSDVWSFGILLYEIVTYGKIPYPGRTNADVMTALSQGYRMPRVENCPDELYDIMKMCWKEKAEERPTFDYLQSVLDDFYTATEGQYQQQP

| IC50 [2] [nM] | Structure (SMILES) | further results |
| --- | --- | --- |
|  | CSc1ccc(C(=O)NCc2cc3c(=O)[nH]c(N)nc3[nH]2)cc1 | inhibition [1]: 42% |
| 760 | Cc1nnc(NC2CCCCC2)nc1O |  |
| 4800 | Cc1n[nH]c(Nc2ccc3c(c2)OCO3)nc1=O |  |
|  | Oc1ccc(F)c(Nc2nc(SCCN3CCOCC3)nc3c2cnn3CC(Cl)c2ccccc2)c1 (centres undefined) | Ki [3]: 170 nM |
